Among the test systems are UO-31 renal; SK-MEL-5 melanoma; A498 renal; NCI-H226 lung; HCT-116 colon; HCT-15 colon; NCI-H460 lung; SNB-75 CNS; HS 578T breast; OVCAR-8 ovarian.
Holding throughout (assay): inhibition of tumour cell growth, NCI panel, 48 h

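These data come from cells grown in 96-well plates and exposed to compound for 48 hours at five concentrations. GI50 marks 50% less growth. TGI: concentration producing complete growth inhibition.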 Bounds are passed on as bounds.

With `Cc1c(C2=C(Br)C(=O)N(C)C2=O)c(=O)n(C)c(=O)n1C`, the TGI in the assay on UO-31 renal is 33.3 µM; in the assay with SK-MEL-5 melanoma, 52.1 µM; with A498 renal, 82.9 µM; in the assay on NCI-H226 lung, over 100 µM; with HCT-116 colon, 40.9 µM; with HCT-15 colon, 45.2 µM. Besides, the TGI with NCI-H460 lung, in the assay with SNB-75 CNS, with HS 578T breast and in the assay with OVCAR-8 ovarian was over 100 µM in each case.
As to `O=C(COc1ccc(/C=C2\CSc3ccccc3C2=O)cc1)Nc1nccs1`, the GI50 with UO-31 renal was 2.24 µM; with SK-MEL-5 melanoma it was 11.5 µM; in the assay with A498 renal, 15.8 µM; with NCI-H226 lung, 15.6 µM; in the assay on HCT-116 colon, 4.32 µM; in the assay with HCT-15 colon, 4.03 µM. Moreover, the GI50 in the assay with NCI-H460 lung is 15.9 µM; in the assay on SNB-75 CNS it was 11.5 µM; in the assay with HS 578T breast, 4.29 µM; in the assay on OVCAR-8 ovarian, 7.76 µM. For the same compound, the TGI came out at 6.73 µM in the assay with UO-31 renal; 23.6 µM with SK-MEL-5 melanoma; 29.2 µM in the assay with A498 renal; 32.5 µM in the assay with NCI-H226 lung; 14.7 µM in the assay with HCT-116 colon; 14.7 µM in the assay with HCT-15 colon. Further, the TGI with NCI-H460 lung stood at 31.9 µM; in the assay with SNB-75 CNS, 25.1 µM; in the assay with HS 578T breast it was 37.2 µM; with OVCAR-8 ovarian it was 32.8 µM.
As to `N#CC(=NCCO)C1=C(O)c2ccccc2C1=O`, the TGI in the assay with UO-31 renal, in the assay on SK-MEL-5 melanoma, in the assay with A498 renal, in the assay with NCI-H226 lung, with HCT-116 colon and in the assay on HCT-15 colon was over 100 µM each time. Besides, the TGI in the assay on NCI-H460 lung, with SNB-75 CNS, in the assay on HS 578T breast and in the assay on OVCAR-8 ovarian was over 100 µM in each case.
Turning to `COc1ccc(C(=O)COc2cccc(/C=C3\Oc4ccc5ccccc5c4C3=O)c2)cc1`, the GI50 with UO-31 renal was 6.42 µM; with SK-MEL-5 melanoma, 10.9 µM; in the assay with A498 renal, 20.6 µM; in the assay on NCI-H226 lung, 6.58 µM; in the assay on HCT-116 colon it was 2.31 µM; in the assay with HCT-15 colon it was 2.94 µM. Further, the GI50 in the assay with NCI-H460 lung was 20.6 µM; in the assay on SNB-75 CNS it was 12.3 µM; in the assay with HS 578T breast, 5.39 µM; in the assay on OVCAR-8 ovarian, 4.57 µM. The TGI in the assay with UO-31 renal is 23.2 µM; with SK-MEL-5 melanoma, 23.9 µM; in the assay with A498 renal, 37.1 µM; in the assay with NCI-H226 lung, 22.4 µM; in the assay on HCT-116 colon it was 4.94 µM; with HCT-15 colon it was 13.7 µM. The TGI amounted to 52.6 µM in the assay with NCI-H460 lung, 29 µM in the assay with SNB-75 CNS, 25.8 µM with HS 578T breast and 14.9 µM with OVCAR-8 ovarian.
In the case of `Cc1cc(S(=O)(=O)N/N=C(\Sc2cc(Cl)c(C)cc2S(N)(=O)=O)c2ccc(Cl)cc2)c(Cl)cc1Cl`, the GI50 with UO-31 renal is 57.1 µM; with SK-MEL-5 melanoma, over 100 µM; in the assay with A498 renal it was 57.1 µM; in the assay with NCI-H226 lung it was 58.3 µM; in the assay with HCT-116 colon, 79.4 µM; with HCT-15 colon it was over 100 µM. Further, the GI50 in the assay with NCI-H460 lung, in the assay with HS 578T breast and with OVCAR-8 ovarian was over 100 µM in each case. For the same compound, the TGI in the assay with UO-31 renal, in the assay on SK-MEL-5 melanoma, in the assay with A498 renal, in the assay on NCI-H226 lung, with HCT-116 colon and with HCT-15 colon was over 100 µM in each case. The TGI in the assay with NCI-H460 lung, with HS 578T breast and in the assay on OVCAR-8 ovarian was over 100 µM in each case.
Turning to `COc1ccc2c(c1)[C@@]13CCCC[C@H]1[C@@H](C2)N(C)CC3=O`, the TGI in the assay with UO-31 renal turned out to be 32.9 µM; in the assay with SK-MEL-5 melanoma, 61 µM; with NCI-H226 lung, 57.9 µM; with HCT-116 colon it was 29.7 µM; in the assay on HCT-15 colon, 32.1 µM; in the assay with NCI-H460 lung it was 69.5 µM. In addition, the TGI with HS 578T breast is 66.6 µM; with OVCAR-8 ovarian, 42.1 µM.
Consider `CCCCC1(CN2CCOCC2)S/C(=N/c2nc(CC(=O)OCC)cs2)NC1=O` (stereo not given), for which the GI50 in the assay on UO-31 renal was 33 µM; in the assay with SK-MEL-5 melanoma, 24.2 µM; in the assay on A498 renal, 41.5 µM; in the assay with NCI-H226 lung it was 38.6 µM; with HCT-116 colon, 22 µM; in the assay on HCT-15 colon, 40 µM. In addition, the figures for the GI50 in the assay with SNB-75 CNS, with HS 578T breast and in the assay with OVCAR-8 ovarian were 29.4 µM, 35.8 µM and 33.9 µM, respectively. For the same compound, the TGI in the assay on UO-31 renal is over 100 µM; with SK-MEL-5 melanoma, 75.2 µM; in the assay with A498 renal it was over 100 µM; with NCI-H226 lung, over 100 µM; in the assay with HCT-116 colon it was 63.1 µM; with HCT-15 colon, over 100 µM. The TGI in the assay with SNB-75 CNS, with HS 578T breast and in the assay with OVCAR-8 ovarian was over 100 µM in each case.
With `CC(C)OC(=O)NNc1cc(Cl)ccc1Cl`, the TGI in the assay with UO-31 renal is over 100 µM; in the assay on SK-MEL-5 melanoma, over 100 µM; in the assay with A498 renal, 96.6 µM; in the assay on HCT-116 colon, over 100 µM; in the assay on HCT-15 colon it was over 100 µM; with NCI-H460 lung, over 100 µM. Further, the TGI in the assay with SNB-75 CNS, with HS 578T breast and in the assay on OVCAR-8 ovarian was over 100 µM throughout.
In the case of `CN(CCCNC(=O)Cc1ccc2ccc3cccc4ccc1c2c34)CCCNc1cc(-c2ccc3ccccc3c2)nc2ccccc12`, the GI50 in the assay on UO-31 renal was 1.4 µM; in the assay on SK-MEL-5 melanoma, 1.64 µM; with A498 renal, 1.66 µM; with NCI-H226 lung it was 1.83 µM; in the assay on HCT-116 colon it was 0.333 µM; in the assay with HCT-15 colon, 1.52 µM. The values for the GI50 in the assay with NCI-H460 lung, in the assay on SNB-75 CNS and in the assay on HS 578T breast were 1.65 µM, 1.45 µM and 1.66 µM, respectively. Besides, the TGI in the assay with UO-31 renal was 3.15 µM; in the assay with SK-MEL-5 melanoma, 3.01 µM; in the assay with A498 renal, 3.19 µM; in the assay on NCI-H226 lung, 3.83 µM; in the assay on HCT-116 colon, 1.28 µM; in the assay on HCT-15 colon, 2.94 µM. Further, the results for the TGI in the assay on NCI-H460 lung, in the assay on SNB-75 CNS and in the assay with HS 578T breast were 3.61 µM, 2.75 µM and 3.59 µM, respectively.
On to `COc1cc2c(cc1O)C1Cc3ccc(OC)c(O)c3C(C2)N1C` (stereo not given), for which the TGI in the assay on UO-31 renal, with SK-MEL-5 melanoma, with A498 renal, with NCI-H226 lung, in the assay with HCT-116 colon and in the assay with HCT-15 colon was over 100 µM in each case. Further, the TGI with NCI-H460 lung, with HS 578T breast and with OVCAR-8 ovarian was over 100 µM throughout.

For the origin of these results see PubChem BioAssay (NCI).
